Measured values reported in patent publication US7112676B2, “Pyrimido compounds having antiproliferative activity” (Hoffmann-La Roche Inc., priority 2002, dated 2006).

Tests used:
FGF-stimulated HUVEC = FGF-stimulated HUVEC proliferation assay (BrdU); assay type: cell-based; details: Homo sapiens, FGF 5 ng per mL, BrdU labeling, 24 hour exposure, read-out: IC50 (μM) of VEGF and FGF-Stimulated HUVEC Proliferation Assays HUVEC/bFGFR
Experimental: (§1) The antiproliferative activity of test compounds of this invention in cell-based assays was evaluated by BrdU assay using the BrdU kit (Roche Biochemicals 1-647-229). Human umbilical vein endothelial cells (HUVEC, Clonetics CC-2519) were cultured in EGM-2 (Clonetics CC-3162) medium and seeded at 10000 cells per well in a volume of 200 μL of EGM-2 (Clonetics CC-3162) media in a 96-well flat bottom plates (Costar 3595) overnight. After 24 hours of growth at 37° C. with 5% CO2, the incubation media was removed slowly by aspiration and the content of each well was washed with 300 μL pre-warmed EBM-2 (Clonetics CC-3156) containing 50 μg per mL of gentamycin and 50 ng per mL of amphotercin-B (Clonetics CC-4083). Subsequently, the remaining media was again aspirated and replaced with 160 μL per well of serum starvation media (EBM-2 supplemented with 1% heat inactivated FBS (Clonetics CC-4102), 50 μg per mL gentamycin and 50 ng per mL of amphotercin-B (Clonetics CC-4083), 10 units per mL of Wyeth-Ayerst heparin (NDC0641-0391-25), and 2 mM L-glutamine (GIBCO 25030-081). After serum starving the cells for 24 hours, 20 μL of test compound at 10× test concentration in serum starvation medium with 2.5% DMSO was added to the appropriate wells. The control wells contained 20 μL of serum starvation medium with 2.5% DMSO. Plates were returned to the incubator for 2 hours. After pre-incubating the cells with the test compounds for 2 hours, 20 μL of growth factors at 10× assay concentration diluted in serum starvation media, FGF at 50 ng per mL, or VEGF (R&D systems 293-VE) at 200 ng per mL were added. The final concentration of FGF in the assay was 5 ng per mL and the final concentration of VEGF in the assays was 20 ng per mL. The growth factor free control wells had 20 μL per well of serum starvation media with the same amount of BSA as the wells with growth factors. The plates were returned to the incubator for an additional 22 hours.
(§2) After 24 hour exposure to the test compounds, the cells were labeled with BrdU (Roche Biochemicals 1-647-229), by adding 20 μL per well of BrdU labeling reagent that has been diluted (1:100) in serum starvation medium. The plates were then returned to the incubator for 4 hours. The labeling medium was removed by draining the medium onto paper towels. The cells were fixed and DNA denatured by adding 200 μL of fixation/denaturation solution to each well and incubating at room temperature for 45 minutes. The fixation/denaturation solution was drained onto paper towels and to each well was added 100 μL of anti-BrdU-POD and the wells were incubated for 2 hours at room temperature. The antibody solution was removed and the wells were each washed 3–4 times with 300 μl PBS. 100 μL of the TMB substrate solution was added to each well and the wells were incubated at room temperature for 5–8 minutes. The reaction was then stopped by adding 100 μL per well of 1 M phosphoric acid. The plates were read at 450 nm with reference wavelength of 650 nm. The percent inhibition for each test compound was calculated by subtracting the absorbency of the blank (no cells) wells from all wells, then subtracting the division of the average absorbency of each test duplicate by the average of the controls from 1. The final product was then multiplied by 100 (% of inhibition=(1−average absorbency of test duplicate/average of control)100). The IC50 value is the concentration of test compound that inhibits by 50% BrdU labeling, and is a measure of inhibition of cell proliferation. The IC50 is determined from the linear regression of a plot of the logarithm of the concentration versus percent inhibition.

VEGF-stimulated HUVEC = VEGF-stimulated HUVEC proliferation assay (BrdU); assay type: cell-based; details: Homo sapiens, VEGF 20 ng per mL, BrdU labeling, 24 hour exposure, read-out: IC50 (μM) of VEGF and FGF-Stimulated HUVEC Proliferation Assays HUVEC/VEFG
Experimental: as §1, §2

FGFR = target: T1, FGFR; assay: FGFR kinase HTRF assay; assay type: biochemical; details: 10 μM ATP, read-out: IC50 (μM) - Enzyme Inhibition Assays FGFR
T1 construct: fused on or other part: GST tag
Experimental: (§3) To determine inhibition of KDR, FGFR, EGFR, and PDGFR activity, kinase assays were conducted using an HTRF (Homogeneous Time Resolved Fluorescence) assay. This assay is described in A. J. Kolb et. al., Drug Discovery Today, 1998, 3(7), p 333.
(§4) Kinase activity assays were performed in 96-well polypropylene plates (Falcon) with a total volume of 90 μL in each well. Each well contained 1 μM KDR substrate (Biotin-EEEEYFELVAKKKK), 1 nM activated KDR, and a test compound with one of 8 assay concentrations ranging from 100 μM to […] (1:5 serial dilution). The kinase activity assay was done in the presence of 100 mM HEPES, pH 7.4, 1 mM DTT, 0.1 mM Na2VO4, 25 mM MgCl2, 50 mM NaCl (from KDR stock solution), 1% DMSO (from compound), 0.3 mM ATP (at Km concentration) and 0.02% BSA. The reaction was incubated at 37° C. for 30 minutes. To stop the KDR reaction, 72 μL of reaction mixture was transferred into a STOP plate containing 18 μL of revelation buffer (20 mM EDTA, 50 mM HEPES, pH 7.4, 0.02% BSA, 10 nM Eu-labelled anti-pY antibody (final conc. 2 nM), and 100 nM streptavidin (final conc. 20 nM)). After mixing, 35 μL of solution was transferred into duplicate wells of a 384-well black plate (Costar), and read at 615/665 nm on a Wallac Victor 5 reader.
FGFR, EGFR, and PDGFR activity assays were carried out as described above for the KDR activity assay with the following differences. GST-tagged FGFR enzyme was activated at room temperature for 1 hour in the following activation buffer: 100 mM HEPES, pH 7.4, 50 mM NaCl, 20 mM MgCl2, and 4 mM ATP. The kinase activity assay was performed with 1 μM substrate (Biotin-EEEEYFELV), 1.5 nM activated FGFR, and test compound in the presence of 100 mM HEPES, 1 mM DTT, 0.4 mM MgCl2, 0.4 mM MnCl2, 50 mM NaCl, 1% DMSO, 10 μM ATP (Km=8.5 μM for FGFR), 0.1 mM Na2VO4, and 0.02% BSA, in a total volume of 90 μL. The rest of the assay was performed in the same manner as KDR assay.
(§5) Compound IC50 values were determined from duplicate sets of data, and calculated by using Excel and fitting data to equation Y=[(a−b)/{1+(X/c)^d]+b, where a and b are enzyme activity in the presence of no test inhibitor compound and an infinite amount of inhibitor test compound, respectively, c is the IC50 and d is the hill constant of the compound response. The IC50 value is the concentration of test compound that reduces by 50% the enzyme activity under the test conditions described.

PDGFR = PDGFR kinase HTRF assay; assay type: biochemical; details: 2.3 μM ATP, read-out: IC50 (μM) - Enzyme Inhibition Assays PDGFR
Experimental: as §3, §4
The PDGFR kinase activity assay was performed with 1 μM substrate (Biotin-EEEEYFELV), 1.0 nM PDGFR, test compounds, 100 mM HEPES, pH 7.4, 1 mM DTT, 5 mM MgCl2, 2 mM MnCl2, 1% DMSO, 2.3 μM ATP (Km for PDGFR), 0.1 mM Na2VO4, and 0.02% BSA. The rest of the assay was performed in the same manner as the KDR assay.
as §5

EGFR = EGFR (Homo sapiens, UniProt P00533); assay: EGFR kinase HTRF assay; assay type: biochemical; details: 0.5 μM ATP, read-out: IC50 (μM) - Enzyme Inhibition Assays EGFR
Sequence of EGFR (P00533 25-1210, species assumed): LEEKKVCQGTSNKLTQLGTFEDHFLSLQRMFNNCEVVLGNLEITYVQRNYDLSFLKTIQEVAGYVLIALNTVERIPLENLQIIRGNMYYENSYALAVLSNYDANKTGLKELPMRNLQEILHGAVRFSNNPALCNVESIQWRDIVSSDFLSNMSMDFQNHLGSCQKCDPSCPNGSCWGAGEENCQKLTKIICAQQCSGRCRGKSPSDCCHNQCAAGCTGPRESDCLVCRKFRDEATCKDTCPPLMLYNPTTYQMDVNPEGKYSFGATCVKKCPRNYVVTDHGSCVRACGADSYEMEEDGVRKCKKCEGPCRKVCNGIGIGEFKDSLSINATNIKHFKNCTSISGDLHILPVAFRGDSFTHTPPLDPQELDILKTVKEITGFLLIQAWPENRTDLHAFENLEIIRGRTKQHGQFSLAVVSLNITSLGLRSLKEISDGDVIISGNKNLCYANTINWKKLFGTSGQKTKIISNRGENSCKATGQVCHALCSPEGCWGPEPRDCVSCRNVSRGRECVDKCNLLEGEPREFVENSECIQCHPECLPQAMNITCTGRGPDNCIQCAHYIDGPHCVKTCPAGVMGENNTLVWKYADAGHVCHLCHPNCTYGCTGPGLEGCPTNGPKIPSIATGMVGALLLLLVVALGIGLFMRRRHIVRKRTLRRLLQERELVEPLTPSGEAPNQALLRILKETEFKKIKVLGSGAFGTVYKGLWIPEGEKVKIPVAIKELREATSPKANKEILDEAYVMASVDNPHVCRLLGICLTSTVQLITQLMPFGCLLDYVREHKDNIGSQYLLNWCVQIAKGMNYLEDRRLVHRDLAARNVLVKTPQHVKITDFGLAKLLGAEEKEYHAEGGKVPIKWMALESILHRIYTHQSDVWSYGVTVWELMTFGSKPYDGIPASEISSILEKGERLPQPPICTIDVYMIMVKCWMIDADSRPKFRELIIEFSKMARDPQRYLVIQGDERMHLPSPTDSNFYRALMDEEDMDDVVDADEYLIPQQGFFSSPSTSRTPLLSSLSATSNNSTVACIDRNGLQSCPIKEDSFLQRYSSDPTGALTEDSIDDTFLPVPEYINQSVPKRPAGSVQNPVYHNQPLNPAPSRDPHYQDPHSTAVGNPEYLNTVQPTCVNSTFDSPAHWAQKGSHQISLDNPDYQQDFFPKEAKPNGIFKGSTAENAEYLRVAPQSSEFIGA
Experimental: as §3, §4
The EGFR kinase activity assay was performed with 1 μM substrate (Biotin-EEEEYFELV), 1.5 nM EGFR, test compounds, 100 mM HEPES, pH 7.4, 1 mM DTT, 5 mM MgCl2, 2 mM MnCl2, 1% DMSO, 0.5 μM ATP (Km for EGFR), 0.1 mM Na2VO4, and 0.02% BSA. The rest of the assay was performed in the same manner as the KDR assay.
as §5

KDR = target: T2, KDR (Homo sapiens, UniProt P35968); assay: KDR kinase HTRF assay; assay type: biochemical; details: 0.3 mM ATP, read-out: IC50 (μM) - Enzyme Inhibition Assays KDR
T2 construct: EEE-tag
T2 sequence (P35968 20-1356, species assumed): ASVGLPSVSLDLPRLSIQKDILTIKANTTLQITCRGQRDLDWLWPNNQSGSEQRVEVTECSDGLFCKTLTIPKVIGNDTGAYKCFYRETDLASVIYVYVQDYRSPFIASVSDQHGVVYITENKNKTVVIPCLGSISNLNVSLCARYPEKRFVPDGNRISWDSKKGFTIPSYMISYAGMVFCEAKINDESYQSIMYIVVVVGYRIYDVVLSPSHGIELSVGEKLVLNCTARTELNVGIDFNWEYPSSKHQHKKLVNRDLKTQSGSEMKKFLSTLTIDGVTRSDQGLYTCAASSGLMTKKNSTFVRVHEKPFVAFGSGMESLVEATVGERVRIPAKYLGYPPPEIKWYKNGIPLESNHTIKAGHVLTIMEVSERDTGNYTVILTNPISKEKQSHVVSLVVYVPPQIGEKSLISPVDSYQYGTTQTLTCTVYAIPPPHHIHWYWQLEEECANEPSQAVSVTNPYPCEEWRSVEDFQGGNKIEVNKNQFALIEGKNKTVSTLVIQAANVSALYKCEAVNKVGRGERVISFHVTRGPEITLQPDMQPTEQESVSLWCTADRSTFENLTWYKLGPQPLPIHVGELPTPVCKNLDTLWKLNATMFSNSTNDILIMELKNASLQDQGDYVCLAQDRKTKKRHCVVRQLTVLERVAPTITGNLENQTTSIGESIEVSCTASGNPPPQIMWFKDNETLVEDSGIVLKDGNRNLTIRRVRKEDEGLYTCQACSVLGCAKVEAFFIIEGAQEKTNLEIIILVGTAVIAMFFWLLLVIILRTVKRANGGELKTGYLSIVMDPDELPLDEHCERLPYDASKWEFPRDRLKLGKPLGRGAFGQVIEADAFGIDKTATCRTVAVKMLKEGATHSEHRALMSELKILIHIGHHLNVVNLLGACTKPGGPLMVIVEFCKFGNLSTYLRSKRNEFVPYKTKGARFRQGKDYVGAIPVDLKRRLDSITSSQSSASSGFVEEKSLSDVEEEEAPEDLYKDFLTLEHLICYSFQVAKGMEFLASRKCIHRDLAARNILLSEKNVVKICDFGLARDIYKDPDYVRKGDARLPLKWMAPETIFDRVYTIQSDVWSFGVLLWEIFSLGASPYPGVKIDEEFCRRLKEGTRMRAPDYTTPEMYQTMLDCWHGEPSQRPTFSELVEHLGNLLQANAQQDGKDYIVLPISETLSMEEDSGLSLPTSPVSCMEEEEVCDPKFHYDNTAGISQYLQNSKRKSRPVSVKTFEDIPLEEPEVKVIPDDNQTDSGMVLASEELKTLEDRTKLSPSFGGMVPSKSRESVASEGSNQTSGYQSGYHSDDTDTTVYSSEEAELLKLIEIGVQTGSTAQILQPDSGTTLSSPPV
Experimental: as §3
Prior to kinase reaction, recombinant EEE-tagged KDR was activated in the presence of activation buffer (50 mM HEPES, pH 7.4, 1 mM DTT, 10% glycerol, 150 mM NaCl, 0.1 mM EDTA, 26 mM MgCl2, and 4 mM ATP). The enzyme was incubated at 4° C. for 1 hour.
as §4, §5

Measured: IC50

COc1ccc(N2C(=O)N([C@@H](C)c3ccccc3)c3nc(Nc4ccccc4)ncc3C2C)cc1 (stereo partly drawn) [Example 18, 3-(4-Methoxy-phenyl)-4-methyl-7-phenylamino-1-[1-(S)-phenyl-ethyl]-3,4-dihydro-1H-pyrimido[4,5-d]pyrimidin-2-one]
< 10 µM: all assays above
